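Test compounds were applied to cells in 96-well plates for 48 hours at 5 doses. Abbreviation: GI50, concentration required for 50% inhibition of growth.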 The source made the active and inactive calls. Rule as the data show it: active = GI50 up to about 1.1 µM and inactive = higher.
Columns and labels:
Experiment in all cases: NCI anticancer screen, dose series, 48 h
[1] = test system: 786-0
[2] = test system: A498
[3] = test system: A549
[4] = test system: ACHN
[5] = test system: BT-549
[6] = test system: CAKI-1
[7] = test system: COLO 205
[8] = test system: DU-145
[9] = test system: EKVX
[10] = test system: HCC 2998
[11] = test system: HCT-116
[12] = test system: HCT-15
[13] = test system: HOP-62
[14] = test system: HOP-92
[15] = test system: HT-29
[16] = test system: Hs-578T
[17] = test system: IGROV-1
[18] = test system: K562
[19] = test system: KM12
[20] = test system: LOX IMVI
[21] = test system: M14
[22] = test system: MCF7
[23] = test system: MDA-MB-231
[24] = test system: MDA-MB-435
[25] = test system: MDA-N
[26] = test system: MOLT-4
[27] = test system: Malme-3M
[28] = test system: NCI-H226
[29] = test system: NCI-H23
[30] = test system: NCI-H460
[31] = test system: NCI-H522
[32] = test system: NCI/ADR-RES
[33] = test system: OVCAR-3
[34] = test system: OVCAR-4
[35] = test system: OVCAR-5
[36] = test system: OVCAR-8
[37] = test system: PC-3
[38] = test system: RPMI-8226
[39] = test system: RXF 393
[40] = test system: SF-268
[41] = test system: SF-295
[42] = test system: SF-539
[43] = test system: SK-MEL-28
[44] = test system: SK-MEL-5
[45] = test system: SK-OV-3
[46] = test system: SN12C
[47] = test system: SNB-19
[48] = test system: SNB-75
[49] = test system: SW-620
[50] = test system: TK-10
[51] = test system: U-251
[52] = test system: UACC-257
[53] = test system: UACC-62
[54] = test system: UO-31
[55] = test system: CCRF-CEM
[56] = test system: HL-60
[57] = test system: SK-MEL-2
[58] = test system: T47D
[59] = test system: SR

O=C(c1cccc(C(=O)c2ccc3c4c(cccc24)C(=O)N(c2ccccc2)C3=O)c1)c1ccc2c3c(cccc13)C(=O)N(c1ccccc1)C2=O
GI50 [1]: > 100 µM (inactive) | GI50 [2]: 17.3 µM (inactive) | GI50 [3]: > 100 µM (inactive) | GI50 [4]: > 100 µM (inactive) | GI50 [5]: > 100 µM (inactive) | GI50 [6]: > 100 µM (inactive) | GI50 [7]: > 100 µM (inactive) | GI50 [8]: > 100 µM (inactive) | GI50 [9]: 38 µM (inactive) | GI50 [10]: > 100 µM (inactive) | GI50 [11]: > 100 µM (inactive) | GI50 [12]: > 100 µM | GI50 [13]: 88.7 µM (inactive) | GI50 [14]: 42.3 µM (inactive) | GI50 [15]: > 100 µM (inactive) | GI50 [16]: 52.8 µM (inactive) | GI50 [17]: 63.7 µM (inactive) | GI50 [18]: > 100 µM (inactive) | GI50 [19]: > 100 µM (inactive) | GI50 [20]: 23.3 µM (inactive) | GI50 [21]: > 100 µM (inactive) | GI50 [22]: 28.2 µM (inactive) | GI50 [23]: 67.1 µM (inactive) | GI50 [24]: > 100 µM (inactive) | GI50 [25]: > 100 µM (inactive) | GI50 [26]: > 100 µM (inactive) | GI50 [27]: > 100 µM (inactive) | GI50 [28]: > 100 µM (inactive) | GI50 [29]: > 100 µM (inactive) | GI50 [30]: > 100 µM (inactive) | GI50 [31]: > 100 µM (inactive) | GI50 [32]: > 100 µM (inactive) | GI50 [33]: > 100 µM (inactive) | GI50 [34]: > 100 µM (inactive) | GI50 [35]: > 100 µM (inactive) | GI50 [36]: > 100 µM (inactive) | GI50 [37]: > 100 µM (inactive) | GI50 [38]: > 100 µM (inactive) | GI50 [39]: > 100 µM (inactive) | GI50 [40]: > 100 µM (inactive) | GI50 [41]: 71.9 µM (inactive) | GI50 [42]: > 100 µM (inactive) | GI50 [43]: > 100 µM (inactive) | GI50 [44]: > 100 µM (inactive) | GI50 [45]: > 100 µM (inactive) | GI50 [46]: > 100 µM (inactive) | GI50 [47]: > 100 µM (inactive) | GI50 [48]: > 100 µM (inactive) | GI50 [49]: > 100 µM (inactive) | GI50 [50]: 69.8 µM (inactive) | GI50 [51]: > 100 µM (inactive) | GI50 [52]: 72.8 µM (inactive) | GI50 [53]: 40 µM (inactive) | GI50 [54]: > 100 µM (inactive)

COC(=O)c1cc(Br)c(C(=O)C(Cl)(Cl)Cl)[nH]1
GI50 [1]: > 100 µM (inactive) | GI50 [2]: > 100 µM (inactive) | GI50 [3]: > 100 µM (inactive) | GI50 [4]: > 100 µM (inactive) | GI50 [5]: > 100 µM (inactive) | GI50 [6]: > 100 µM (inactive) | GI50 [55]: > 100 µM (inactive) | GI50 [7]: > 100 µM (inactive) | GI50 [8]: > 100 µM (inactive) | GI50 [9]: > 100 µM (inactive) | GI50 [11]: > 100 µM (inactive) | GI50 [12]: > 100 µM | GI50 [56]: > 100 µM (inactive) | GI50 [13]: > 100 µM (inactive) | GI50 [14]: > 100 µM (inactive) | GI50 [15]: > 100 µM (inactive) | GI50 [17]: > 100 µM (inactive) | GI50 [18]: > 100 µM (inactive) | GI50 [19]: > 100 µM (inactive) | GI50 [20]: > 100 µM (inactive) | GI50 [21]: > 100 µM (inactive) | GI50 [23]: > 100 µM (inactive) | GI50 [24]: > 100 µM (inactive) | GI50 [25]: > 100 µM (inactive) | GI50 [26]: > 100 µM (inactive) | GI50 [27]: > 100 µM (inactive) | GI50 [28]: > 100 µM (inactive) | GI50 [29]: > 100 µM (inactive) | GI50 [30]: > 100 µM (inactive) | GI50 [31]: > 100 µM (inactive) | GI50 [32]: > 100 µM (inactive) | GI50 [33]: > 100 µM (inactive) | GI50 [34]: > 100 µM (inactive) | GI50 [35]: > 100 µM (inactive) | GI50 [36]: > 100 µM (inactive) | GI50 [37]: > 100 µM (inactive) | GI50 [38]: > 100 µM (inactive) | GI50 [39]: > 100 µM (inactive) | GI50 [40]: > 100 µM (inactive) | GI50 [41]: > 100 µM (inactive) | GI50 [42]: > 100 µM (inactive) | GI50 [43]: > 100 µM (inactive) | GI50 [57]: > 100 µM (inactive) | GI50 [44]: > 100 µM (inactive) | GI50 [45]: > 100 µM (inactive) | GI50 [46]: > 100 µM (inactive) | GI50 [47]: > 100 µM (inactive) | GI50 [48]: > 100 µM (inactive) | GI50 [49]: > 100 µM (inactive) | GI50 [58]: > 100 µM (inactive) | GI50 [50]: > 100 µM (inactive) | GI50 [51]: > 100 µM (inactive) | GI50 [52]: > 100 µM (inactive) | GI50 [53]: > 100 µM (inactive) | GI50 [54]: > 100 µM (inactive)

O=c1cc(CBr)c2ccc(O)cc2o1
GI50 [1]: > 100 µM (inactive) | GI50 [2]: 25.8 µM (inactive) | GI50 [3]: 92.5 µM (inactive) | GI50 [4]: 66.4 µM (inactive) | GI50 [5]: 35.1 µM (inactive) | GI50 [6]: 43.6 µM (inactive) | GI50 [55]: 54.3 µM (inactive) | GI50 [7]: > 100 µM (inactive) | GI50 [8]: 92 µM (inactive) | GI50 [9]: 21.7 µM (inactive) | GI50 [10]: 76.6 µM (inactive) | GI50 [11]: > 100 µM (inactive) | GI50 [12]: 71.4 µM | GI50 [56]: 48.3 µM (inactive) | GI50 [13]: 17 µM (inactive) | GI50 [15]: 54.5 µM (inactive) | GI50 [16]: > 100 µM (inactive) | GI50 [17]: 81.8 µM (inactive) | GI50 [18]: 69.8 µM (inactive) | GI50 [19]: 54.1 µM (inactive) | GI50 [20]: > 100 µM (inactive) | GI50 [21]: 59.6 µM (inactive) | GI50 [22]: 69.7 µM (inactive) | GI50 [23]: > 100 µM (inactive) | GI50 [24]: 39 µM (inactive) | GI50 [25]: 98.9 µM (inactive) | GI50 [26]: 60 µM (inactive) | GI50 [27]: 53.7 µM (inactive) | GI50 [28]: 78 µM (inactive) | GI50 [29]: 47.1 µM (inactive) | GI50 [30]: 63.5 µM (inactive) | GI50 [31]: 42.1 µM (inactive) | GI50 [32]: 87.9 µM (inactive) | GI50 [33]: 32 µM (inactive) | GI50 [35]: 8.39 µM (inactive) | GI50 [36]: 70.6 µM (inactive) | GI50 [37]: 62.4 µM (inactive) | GI50 [38]: 38.5 µM (inactive) | GI50 [39]: 31.8 µM (inactive) | GI50 [40]: > 100 µM (inactive) | GI50 [41]: 45.7 µM (inactive) | GI50 [42]: > 100 µM (inactive) | GI50 [43]: 80.4 µM (inactive) | GI50 [57]: > 100 µM (inactive) | GI50 [44]: 45.9 µM (inactive) | GI50 [45]: 97.7 µM (inactive) | GI50 [46]: 88.7 µM (inactive) | GI50 [47]: 84.3 µM (inactive) | GI50 [48]: > 100 µM (inactive) | GI50 [59]: 63 µM (inactive) | GI50 [49]: > 100 µM (inactive) | GI50 [50]: 88.5 µM (inactive) | GI50 [51]: 53.3 µM (inactive) | GI50 [52]: 64.4 µM (inactive) | GI50 [53]: 55.3 µM (inactive) | GI50 [54]: 58.5 µM (inactive)
